Measurements: ChEMBL document CHEMBL4028893, “Discovery and Optimization of Potent, Cell-Active Pyrazole-Based Inhibitors of Lactate Dehydrogenase (LDH)” (J Med Chem, 2017)
Active and inactive are the calls of the source. The calls are words filed in the database; no cut-off is given here.

Columns and labels:
[1] = test system: MIA PaCa-2; test: Cytoxicity against human MIAPaCa2 cells assessed as cell growth inhibition at 20 uM after 48 hrs by CellTiter-Glo assay; format: functional, cell-based
[2] = test system: Liver; test: Drug metabolism in human liver microsomes assessed as glucuronidated metabolite formation measured over 90 mins in presence of NADPH/UDPGA; format: ADME, microsome
[3] = test system: Liver; test: Drug metabolism in mouse liver microsomes assessed as glucuronidated metabolite formation measured over 90 mins in presence of NADPH/UDPGA; format: ADME, microsome
[4] = Drug level in human A673 cells by LC-MS/MS analysis; format: ADME, cell-based
[5] = test system: Mus musculus; test: Cmax in CD1 mouse plasma at 50 mg/kg, po measured over 24 hrs post dose by LC/MS/MS analysis; format: ADME, organism-based; parameters: dose 50 mg/kg, route oral; conditions: in vivo
[6] = target: Isocitrate dehydrogenase [NADP] cytoplasmic (Homo sapiens, UniProt O75874); test: Inhibition of wild type IDH1 (unknown origin) using isocitrate as substrate preincubated for 30 mins followed by substrate addition in presence of NADP+ measured up to 5 mins by resorufin-based fluorescence assay
Chain of Isocitrate dehydrogenase [NADP] cytoplasmic (O75874 whole entry): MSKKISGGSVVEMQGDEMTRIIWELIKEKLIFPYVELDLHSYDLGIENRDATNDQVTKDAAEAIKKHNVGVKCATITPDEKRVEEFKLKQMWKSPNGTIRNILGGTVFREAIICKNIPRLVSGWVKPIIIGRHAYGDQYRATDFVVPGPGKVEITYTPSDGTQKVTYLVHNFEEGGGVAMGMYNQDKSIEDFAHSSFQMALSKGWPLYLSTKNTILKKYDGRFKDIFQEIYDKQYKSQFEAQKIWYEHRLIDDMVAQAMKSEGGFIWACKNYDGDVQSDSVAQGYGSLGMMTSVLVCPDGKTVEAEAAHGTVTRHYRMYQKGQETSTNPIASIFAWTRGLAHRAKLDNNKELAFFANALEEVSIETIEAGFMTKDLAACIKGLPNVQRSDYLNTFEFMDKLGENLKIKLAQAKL

[7] = test system: Mus musculus; test: Oral bioavailability in CD1 mouse plasma at 50 mg/kg measured over 24 hrs post dose by LC/MS/MS analysis; format: ADME, organism-based; conditions: in vivo
[8] = test system: Mus musculus; test: Volume of distribution at steady state in CD1 mouse plasma at 2 mg/kg, iv measured over 24 hrs post dose by LC/MS/MS analysis; format: ADME, organism-based; conditions: in vivo
[9] = test system: Mus musculus; test: Clearance in CD1 mouse plasma at 2 mg/kg, iv measured over 24 hrs post dose by LC/MS/MS analysis; format: ADME, organism-based; conditions: in vivo
[10] = Drug level in human MIAPaCa2 cells by LC-MS/MS analysis; format: ADME, cell-based; conditions: mia paca-2
[11] = test system: Mus musculus; test: AUClast in CD1 mouse plasma at 2 mg/kg, iv measured over 24 hrs post dose by LC/MS/MS analysis; format: ADME, organism-based; parameters: dose 2 mg/kg, time 0 - last, route intravenous; conditions: in vivo
[12] = test system: Mus musculus; test: AUClast in CD1 mouse plasma at 50 mg/kg, po measured over 24 hrs post dose by LC/MS/MS analysis; format: ADME, organism-based; parameters: dose 50 mg/kg, time 0 - last, route oral; conditions: in vivo

SMILES: NS(=O)(=O)c1ccc(Cc2c(-c3cccc(-c4ccccc4)c3)nn(-c3nc(C(=O)O)cs3)c2CC2CC2)cc1
- growth inhibition (GI) [1]: Active
- Drug metabolism [2]: Metabolite_Notdetected
- Drug metabolism [3]: Metabolite_Notdetected
- Drug uptake [4]: Active
- Cmax [5]: 1780 nM
- IC50 [6]: 29.8 µM
- F [7]: 50%
- Vdss [8]: 27 L/kg
- CL [9]: 294 L/h/kg
- Drug uptake [10]: Active
- AUClast [11]: 0.19 µM·h
- AUClast [12]: 2.5 µM·h
